{"source": "patent US20210154190A1", "about": "“SHP2 INHIBITOR COMPOSITIONS AND METHODS FOR TREATING CANCER” (Revolution Medicines, Inc., priority 2018, published 2021)", "target": "T1, SHP2 E76K (Homo sapiens, UniProt Q06124, E76K)", "T1 construct": "expressed in transfected cells; host or cells: Flp-In T-REx-293 (T-REx-293-SHP2)", "assay": "EGF-induced pERK AlphaLISA in T-REx-293-SHP2 cells, E76K", "type": "cell-based", "conditions": "Variant E76K", "procedure": "An experimental system was creating to test the activity of SHP2 mutants on an isogenic background (FIG. 6). The Flp-In T-REx-293 cell line was obtained from Gibco® and cultivated in high glucose DMEM™ containing 2 mM L-glutamine (Hyclone®), supplemented with 10% FBS (Hyclone®), 1% penicillin/streptomycin (Gibco®), 100 μg/mL Zeocin™ (Gibco®), and 15 μg/mL blasticidin (Gibco®) in a humidified cell culture incubator at 37° C., 5% CO2.\nWild type or mutant SHP2 variants were synthesized and subcloned into the pcDNA5/FRT/TO vector (ThermoFisher). Plasmids were co-transfected with the pOG44 Flp recombinase expression plasmid (ThermoFisher®) into Flp-In T-REx-293 cells using X-tremegene 9 DNA transfection reagent (Sigma®), according to the manufacturer's instructions. […]\nFor the final 5 minutes of drug treatment, cells were stimulated with 50 ng/mL Epidermal Growth Factor (Sigma®). […] Samples were read using an EnVision Multilabel Plate Reader (Perkin Elmer®) using standard AlphaLISA settings. Assay data was plotted and EC50 values were determined using four-parameter concentration-response model in GraphPad Prism 7. […]"}
{"smiles": "Cc1nc(N2CCC3(CC2)CO[C@@H](C)[C@H]3N)c(CO)nc1-c1cccc(Cl)c1Cl", "note": "[Compound B]", "values": [{"measurement": "Cellular sensitivity", "value": "no (Sensitive if IC50 < 2000 nM)"}]}
